Reference: PubChem BioAssay (NCI)
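Cultured in 96-well plates, cells were exposed to test compound for 48 hours across five concentrations. At the GI50, growth is halved. TGI: total growth inhibition.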

Columns and labels:
Experiment in all cases: NCI anticancer screen, dose series, 48 h
786-0 renal = system: 786-0 renal
A498 renal = system: A498 renal
A549 NSCLC = system: A549 NSCLC
ACHN renal = system: ACHN renal
BT-549 breast = system: BT-549 breast
CAKI-1 renal = system: CAKI-1 renal
CCRF-CEM leukemia = system: CCRF-CEM leukemia
COLO 205 colon = system: COLO 205 colon
DU-145 prostate = system: DU-145 prostate
EKVX NSCLC = system: EKVX NSCLC
HCC-2998 colon = system: HCC-2998 colon
HCT-116 colon = system: HCT-116 colon
HCT-15 colon = system: HCT-15 colon
HL-60(TB) leukemia = system: HL-60(TB) leukemia
HOP-62 NSCLC = system: HOP-62 NSCLC
HOP-92 NSCLC = system: HOP-92 NSCLC
HS 578T breast = system: HS 578T breast
HT29 colon = system: HT29 colon
IGROV1 ovarian = system: IGROV1 ovarian
K-562 leukemia = system: K-562 leukemia
KM12 colon = system: KM12 colon
LOX IMVI melanoma = system: LOX IMVI melanoma
M14 melanoma = system: M14 melanoma
MALME-3M melanoma = system: MALME-3M melanoma
MCF7 breast = system: MCF7 breast
MDA-MB-231 breast = system: MDA-MB-231 breast
MDA-MB-435 = system: MDA-MB-435
MOLT-4 leukemia = system: MOLT-4 leukemia
NCI-H226 lung = system: NCI-H226 lung
NCI-H23 lung = system: NCI-H23 lung
NCI-H460 lung = system: NCI-H460 lung
NCI-H522 lung = system: NCI-H522 lung
NCI/ADR-RES ovarian = system: NCI/ADR-RES ovarian
OVCAR-3 ovarian = system: OVCAR-3 ovarian
OVCAR-4 ovarian = system: OVCAR-4 ovarian
OVCAR-5 ovarian = system: OVCAR-5 ovarian
OVCAR-8 ovarian = system: OVCAR-8 ovarian
PC-3 prostate = system: PC-3 prostate
RPMI-8226 leukemia = system: RPMI-8226 leukemia
RXF 393 renal = system: RXF 393 renal
SF-268 CNS = system: SF-268 CNS
SF-295 CNS = system: SF-295 CNS
SF-539 CNS = system: SF-539 CNS
SK-MEL-2 melanoma = system: SK-MEL-2 melanoma
SK-MEL-28 melanoma = system: SK-MEL-28 melanoma
SK-MEL-5 melanoma = system: SK-MEL-5 melanoma
SK-OV-3 ovarian = system: SK-OV-3 ovarian
SN12C renal = system: SN12C renal
SNB-19 CNS = system: SNB-19 CNS
SNB-75 CNS = system: SNB-75 CNS
SR leukemia = system: SR leukemia
SW-620 colon = system: SW-620 colon
T-47D breast = system: T-47D breast
TK-10 renal = system: TK-10 renal
U251 CNS = system: U251 CNS
UACC-257 melanoma = system: UACC-257 melanoma
UACC-62 melanoma = system: UACC-62 melanoma
UO-31 renal = system: UO-31 renal

C#CCN(C)CCCOc1ccc(NCc2ccc(/C=C/C(=O)NO)cc2)cc1Cl
GI50 (786-0 renal): 1130 nM | TGI (786-0 renal): 2750 nM | GI50 (A498 renal): 417 nM | TGI (A498 renal): 1730 nM | GI50 (A549 NSCLC): 528 nM | TGI (A549 NSCLC): 2540 nM | GI50 (ACHN renal): 379 nM | TGI (ACHN renal): 1690 nM | GI50 (BT-549 breast): 1370 nM | TGI (BT-549 breast): 6090 nM | GI50 (CAKI-1 renal): 544 nM | TGI (CAKI-1 renal): 2210 nM | GI50 (CCRF-CEM leukemia): 264 nM | TGI (CCRF-CEM leukemia): > 100000 nM | GI50 (COLO 205 colon): 374 nM | TGI (COLO 205 colon): 1920 nM | GI50 (DU-145 prostate): 412 nM | TGI (DU-145 prostate): 5280 nM | GI50 (EKVX NSCLC): 954 nM | TGI (EKVX NSCLC): 6800 nM | GI50 (HCC-2998 colon): 382 nM | TGI (HCC-2998 colon): 1910 nM | GI50 (HCT-116 colon): 274 nM | TGI (HCT-116 colon): 1700 nM | GI50 (HCT-15 colon): 512 nM | TGI (HCT-15 colon): 4600 nM | GI50 (HL-60(TB) leukemia): 331 nM | TGI (HL-60(TB) leukemia): 17300 nM | GI50 (HOP-62 NSCLC): 601 nM | TGI (HOP-62 NSCLC): 3240 nM | GI50 (HOP-92 NSCLC): 340 nM | TGI (HOP-92 NSCLC): 1410 nM | GI50 (HS 578T breast): 582 nM | TGI (HS 578T breast): 6220 nM | GI50 (HT29 colon): 345 nM | TGI (HT29 colon): 4770 nM | GI50 (IGROV1 ovarian): 361 nM | TGI (IGROV1 ovarian): 1570 nM | GI50 (K-562 leukemia): 297 nM | TGI (K-562 leukemia): > 100000 nM | GI50 (KM12 colon): 1020 nM | TGI (KM12 colon): 6800 nM | GI50 (LOX IMVI melanoma): 475 nM | TGI (LOX IMVI melanoma): 1360 nM | GI50 (M14 melanoma): 465 nM | TGI (M14 melanoma): 2100 nM | GI50 (MALME-3M melanoma): 242 nM | TGI (MALME-3M melanoma): 1590 nM | GI50 (MCF7 breast): 421 nM | TGI (MCF7 breast): 11800 nM | GI50 (MDA-MB-231 breast): 502 nM | TGI (MDA-MB-231 breast): 4500 nM | GI50 (MDA-MB-435): 330 nM | TGI (MDA-MB-435): 1280 nM | GI50 (MOLT-4 leukemia): 330 nM | TGI (MOLT-4 leukemia): 17100 nM | GI50 (NCI-H226 lung): 1490 nM | TGI (NCI-H226 lung): 4170 nM | GI50 (NCI-H23 lung): 814 nM | TGI (NCI-H23 lung): 2660 nM | GI50 (NCI-H460 lung): 430 nM | TGI (NCI-H460 lung): 3210 nM | GI50 (NCI-H522 lung): 407 nM | TGI (NCI-H522 lung): 2580 nM | GI50 (NCI/ADR-RES ovarian): 295 nM | TGI (NCI/ADR-RES ovarian): 5350 nM | GI50 (OVCAR-3 ovarian): 478 nM | TGI (OVCAR-3 ovarian): 2490 nM | GI50 (OVCAR-4 ovarian): 1400 nM | TGI (OVCAR-4 ovarian): 19400 nM | GI50 (OVCAR-5 ovarian): 330 nM | TGI (OVCAR-5 ovarian): 2670 nM | GI50 (OVCAR-8 ovarian): 369 nM | TGI (OVCAR-8 ovarian): > 48300 nM | GI50 (PC-3 prostate): 509 nM | TGI (PC-3 prostate): 6850 nM | GI50 (RPMI-8226 leukemia): 316 nM | TGI (RPMI-8226 leukemia): 2820 nM | GI50 (RXF 393 renal): 249 nM | TGI (RXF 393 renal): 799 nM | GI50 (SF-268 CNS): 1360 nM | TGI (SF-268 CNS): 4650 nM | GI50 (SF-295 CNS): 634 nM | TGI (SF-295 CNS): 2030 nM | GI50 (SF-539 CNS): 717 nM | TGI (SF-539 CNS): 2900 nM | GI50 (SK-MEL-2 melanoma): 2050 nM | TGI (SK-MEL-2 melanoma): 6610 nM | GI50 (SK-MEL-28 melanoma): 485 nM | TGI (SK-MEL-28 melanoma): 1920 nM | GI50 (SK-MEL-5 melanoma): 373 nM | TGI (SK-MEL-5 melanoma): 1340 nM | GI50 (SK-OV-3 ovarian): 645 nM | TGI (SK-OV-3 ovarian): 2990 nM | GI50 (SN12C renal): 1050 nM | TGI (SN12C renal): 7340 nM | GI50 (SNB-19 CNS): 1030 nM | TGI (SNB-19 CNS): 4060 nM | GI50 (SNB-75 CNS): 474 nM | TGI (SNB-75 CNS): 2920 nM | GI50 (SR leukemia): 360 nM | TGI (SR leukemia): > 100000 nM | GI50 (SW-620 colon): 235 nM | TGI (SW-620 colon): 856 nM | GI50 (T-47D breast): 338 nM | TGI (T-47D breast): > 31000 nM | GI50 (TK-10 renal): 387 nM | TGI (TK-10 renal): 3290 nM | GI50 (U251 CNS): 502 nM | TGI (U251 CNS): 2420 nM | GI50 (UACC-257 melanoma): 419 nM | TGI (UACC-257 melanoma): 18200 nM | GI50 (UACC-62 melanoma): 367 nM | TGI (UACC-62 melanoma): 1900 nM | GI50 (UO-31 renal): 299 nM | TGI (UO-31 renal): 1550 nM
